The values below come from patent US20100041756A1, “METHOD OF MODULATING B CELL FUNCTIONING” (priority 2004, published 2010).

pIC50: −log10 of the molar value. Where two headings read alike, the source gives them in different places.

For experiment [1], the system named is DBA/1 mice immunised with type II collagen in CFA. The experiment in a line: Development of collagen-induced arthritis, treatment from the day of immunisation (Example 4). Format: in vivo, mouse. How it is done: Type II collagen was purified from bovine cartilage, as described [Williams, R. O. 2004, Methods Mol. Med. 98:207-216] and solubilized by stirring overnight at 4° C. in acetic acid (0.1M) or Tris buffer (0.05 M Tris, containing 0.2 M NaCl, pH 7.4). Tranilast was synthesised by Angiogen Pharmaceuticals Pty. Ltd. For in vivo studies Tranilast was dissolved at a maximum concentration of 10 mg/ml in 1% sodium bicarbonate by heating for 1 h at 70° C. Upon cooling, an emulsion was formed. For in vitro studies Tranilast was dissolved in dimethyl sulphoxide (DMSO). 3-Hydroxy-anthranilic acid (3-HAA) was purchased from Sigma (Poole, UK) and dissolved in PBS.
Male DBA/1 mice (8-12 weeks old) were immunized intradermally at the base of the tail with bovine type II collagen (200 μg) emulsified in complete Freund's adjuvant (CFA; Difco, West Moseley, UK). Arthritis was monitored clinically using the following scoring system: 0=normal, 1=slight swelling and/or erythema, and 2=pronounced oedematous swelling. Each limb was graded, giving a maximum score of 8 per mouse. In addition, paw-swelling was measured using calipers.
ELISA plates (Nunc, Uxbridge, UK) were coated with 2 μg/ml of bovine CII dissolved overnight in Tris Buffer (0.05 M Tris, containing 0.2 M NaCl, pH 7.4) blocked with 2% bovine serum albumin (BSA) and then incubated with serial dilutions of test sera. A reference sample was included on each plate. Bound total IgG, IgG1 or IgG2a was detected by incubation with HRP-conjugated sheep anti-mouse IgG, IgG1 or IgG2a, followed by TMB substrate. Optical density was measured at 450 nm.
In order to assess its anti-arthritic potential, Tranilast was injected into DBA/1 mice (200 mg/kg/day) from the day of immunisation with type II collagen in CFA. By day 28, 5 of 7 (71%) vehicle treated mice had developed arthritis of moderate severity (clinical score 2.8±0.6), whilst 1 of 7 (14%) Tranilast-treated mice had developed mild arthritis (clinical score 1).

Experiment [2] relates to T cells stimulated with anti-CD3/anti-CD28. The experiment in a line: Cytokine production by stimulated T cells in vitro (ELISA). Format: cell-based, mouse. How it is done: (§1) FIG. 10 is a graphical representation depicting that 3,4-DAA and 3-HAA inhibit B and T cell proliferation in vitro. Purified B and T cells were stimulated for 72 h with anti-CD40 (a), or anti-CD3/anti-CD28 (b) respectively, in the presence of varying doses of 3,4-DAA, or 3-HAA.
(§2) A single cell suspension was prepared from spleen by mincing through a cell strainer, and erythrocytes were lysed using an ammonium chloride solution (Sigma, St Louis, Mo., USA). B cells were positively enriched by using anti-IgM MACS microbeads, and T cells were positively enriched using anti-CD4 MACS microbeads and the MACS system, according to the manufacturer's guidelines (Miltenyi Biotec, Bergisch Gladbach, Germany). Purity was assessed by flow cytometric analysis (B cell>90% CD19+, T cell>90% CD4+). Cells were cultured at 5×10^5 cells/ml in 200 μl complete RPMI, as above, in a flat bottom 96-well plate and cultured for 72 h. B cells were stimulated with anti-CD40 monoclonal antibody (10 μg/ml; BD), and T cells were stimulated with 5 μg/ml plate-bound anti-CD3 (BD), 5 μg/ml soluble anti-CD28 (BD). Tranilast, 3-HAA, or vehicle (DMSO) were incubated at concentrations stated with the cultures. 48 hours after stimulation, 100 μl culture medium was collected, and cells were pulsed with 1 μCi ^3H thymidine per well for 18 h. Cells were then harvested and plates assessed for incorporation. Each assay was performed on a minimum of 3 occasions. Data shown is of one representative experiment, and is expressed as mean+/−SD of triplicate in culture. IFN-γ, IL-10 and IL-5 levels was assessed in the culture medium by ELISA, as above.

Experiment [3] has as its system B cells stimulated with anti-CD40. The experiment in a line: Purified B cell proliferation, anti-CD40, 3H-thymidine incorporation (Example 4). Format: cell-based, mouse. How it is done:
as §1, §2
A general note: Uptake of a labelled nucleoside into DNA is a usual measure of proliferation.

Experiment [4] deals with B cells activated with LPS, anti-CD40 or anti-IgM antibody. Kind of experiment: B cell proliferation, 3[H]thymidine incorporation (Example 3). It counts as cell-based, mouse. To be noted: for anti-IgM induced proliferation: 12.5-100 μg/ml; for inhibition at 100 µg/mL: Mus musculus, B-cell, 100 μg/ml. Here is the method:
FIG. 4 is a graphical representation depicting that B cell proliferation induced by LPS and anti-CD40 is inhibited by Tranilast. B-cells were activated in vitro with LPS or anti-CD40 antibody and 6.25-100 μg/ml tranilast. Proliferation was assessed using ^3[H]thymidine incorporation. LPS and anti-CD40 induced a 92- and 258-fold increase in thymidine incorporation respectively.
FIG. 5 is a graphical representation depicting that B cell proliferation induced by LPS and anti-CD40 and anti-IgM is inhibited by tranilast. B-cells were activated in vitro with LPS or anti-CD40 antibody or anti-IgM antibody, and 12.5-100 μg/ml tranilast. Proliferation was assessed using ^3[H]thymidine incorporation. LPS, anti-CD40 and anti-IgM induced 91- and 81- and 60-fold increases in thymidine incorporation respectively.
B cells were prepared from mouse spleen using rat anti-mouse IgM microbeads and the MACS system.
3 spleens were removed from male DBA/1 mice aged 8-12 weeks. A single cell suspension was prepared by cell-sieve.
Cells were cultured at 1×10^6 cells/ml in 200 μl complete RPMI with glutamine (10% FCS, 1% Pen/Strep, 50 μM 2-Mercaptoethanol, 1 mM Na-Pyruvate) in a 96-well plate for 48 h in the presence of LPS (20 μg/ml), azide-free anti-CD40 monoclonal antibody (10 μg/ml), or azide free F(ab′)2 fragment of anti-IgM monoclonal antibody (20 μg/ml) and 100-6.25 μg/ml tranilast, or vehicle (DMSO).
1 μCi ^3[H]thymidine was added to each well and incubated overnight. Cells were harvested onto a pre-wet filter mat using a Skaton cell harvester. The filter mat was dried in a microwave for 2 minutes at 750 W. The dry filter mat was sealed in a bag using a plate sealer, and the corner cut. 10 ml scintillation fluid was placed in the bag, and spread evenly over the filter mat. The bag was re-sealed and read in a Wallac 1205 plate reader.

Experiment [5] concerns T cells stimulated with anti-CD3/anti-CD28. Kind of experiment: Purified T cell proliferation, anti-CD3/anti-CD28, 3H-thymidine incorporation (Example 4). It counts as cell-based, mouse. Here is the method: as §1, §2

In the case of `COc1ccc(/C=C/C(=O)Nc2ccccc2C(=O)O)cc1OC` [Tranilast, 2-[[3-(3,4-dimethoxyphenyl)-1-oxo-2-propenyl]amino]benzoic acid], the “anti-collagen IgG1 or IgG2a levels in sera” value in experiment [1] (200 mg/kg/day from the day of immunisation) is reported as “no change”. Also, the “mice that had developed arthritis by day 28” value in experiment [1] (200 mg/kg/day from the day of immunisation, 1 of 7 mice) came out at 14%. For the same compound, the clinical score in experiment [1] (day 28, 200 mg/kg/day from the day of immunisation) is listed as 1. Further, the “IFN-γ production by T-cells” value in experiment [2] (FIG. 10C) is “dose-dependently reduced”. In experiment [2] (FIG. 10D), the “IL-10 production by T-cells” value is “dose-dependently inhibited”. The “IL-5 production by T-cells” value in experiment [2] (FIG. 10E) was “dose-dependently inhibited”. For the same compound, the pIC50 in experiment [3] (Mus musculus, B-cell, anti-CD40, 72 h, 3H-thymidine (FIG. 10A), read-out: IC50 for inhibition of B cell proliferation) was 4.14; in experiment [5] (Mus musculus, T-cell, anti-CD3/CD28, 72 h, 3H-thymidine (FIG. 10B), read-out: IC50 for inhibition of T cell proliferation), 4.55. For the same compound, in experiment [3] (anti-CD40, varying doses (FIG. 10A)), the B cell proliferation result was “dose-dependently inhibited”. The “B cell proliferation induced by LPS or anti-CD40” value in experiment [4] (37.5 μg/ml, FIG. 5) is listed as “significantly inhibited”; in experiment [4] (100 μg/ml and 50 μg/ml, FIG. 4), “significantly inhibited”. Also, the anti-IgM induced proliferation entry in experiment [4] (FIG. 5) is recorded as “effective at all doses assessed”; in experiment [4] (FIG. 5, listed as tranilast), “all doses tested inhibited”. The inhibition at 100 µg/mL in experiment [4] (FIG. 4, read-out: inhibition of B cell proliferation induced by LPS) stood at 99%; in experiment [4] (FIG. 4, read-out: inhibition of B cell proliferation induced by anti-CD40) it was 97%; in experiment [4] (FIG. 5, read-out: maximum inhibition of B cell proliferation (LPS)) it was 96%; in experiment [4] (FIG. 5, read-out: maximum inhibition of B cell proliferation (anti-CD40)), 91%; in experiment [4] (FIG. 5, read-out: maximum inhibition of B cell proliferation (anti-IgM)), 98%. In experiment [5] (anti-CD3/CD28, varying doses (FIG. 10B)), the T cell proliferation entry was “dose-dependently inhibited”.
